Results taken from patent publication US20150374689A1, “Use of Levosimendan to Treat Left Ventricular Systolic Dysfunction in Patients Undergoing Cardiac Surgery Requiring Cardiopulmonary Bypass” (TENAX Therapeutics, Inc., priority 2014, published 2015).

What was measured:
[1] = test system: patients with left ventricular systolic dysfunction undergoing cardiac surgery requiring cardiopulmonary bypass; assay: Double-blind, randomized, placebo-controlled clinical trial of levosimendan (Example 1); type: in vivo, human
Method: A randomized, double-blind, placebo-controlled, multicenter study of levosimendan is conducted in subjects with pre-existing left ventricular systolic dysfunction (documented (i) LVEF≦25% in CABG surgery patients, or (ii) LVEF≦35% in CABG with aortic valve surgery patients, CABG with mitral valve surgery patients, or isolated mitral valve surgery patients) with or without heart failure (NYHA functional Class I-IV), undergoing (1) CABG surgery, (2) CABG with aortic valve surgery, (3) CABG with mitral valve surgery, or (4) isolated mitral valve surgery.
All patients are randomized with planned CPB. Approximately 760 subjects are enrolled in the study. Subjects are randomly assigned to receive either levosimendan or a matching placebo in a 1:1 ratio. The study is divided into a screening phase, a double-blind treatment phase, a double-blind post-treatment and follow-up phase from hospital discharge through Day 30. Day 0 is the day of study drug (levosimendan or matching placebo) initiation. All randomly assigned subjects are followed for 90 days, including subjects who were randomly assigned to treatment but not treated.
In the double-blind treatment phase, every attempt is made to start treatment with study drug as soon as possible prior to surgery. However, in all cases study drug is initiated after arterial line insertion and before skin incision. If a Swan-Ganz catheter is planned, it is preferable to insert it prior to study drug initiation. Study drug is administered as described below. Subjects who were randomly assigned to treatment but not treated will be followed (a) through Day 5 for perioperative MI and the need for IABP/LVAD/ECMO, (b) through postoperative […] for postoperative MI (Day 6-10) and postoperative dialysis, and (c) the occurrence of all-cause mortality through Day 90. All subjects may receive additional standard of care medications including inotropes, vasopressors, vasopressin, antiarrhythmics, diuretics, nitrates, and/or nitric oxide as needed. Due to the potential hypotensive effects of the study drug, the concomitant use of vasodilatory drugs should be used with caution.
Subjects are assigned to 1 of 2 treatment groups (levosimendan 0.2 μg/kg/min for first hour, followed by 0.1 μg/kg/min for the next 23 hours or matching placebo) in a 1:1 ratio based on a computer-generated randomization schedule prepared before the start of the study by an independent statistical group not otherwise involved in the conduct or analysis of the study.
The concentration of the diluted infusion is about 50 μg/mL in 5% dextrose (12.5 mg/255 mL in a 250 mL bag; 25 mg/510 mL, 2 vials in a 500 mL bag). The i.v. tubing is primed to fill the volume to the i.v. entry site before starting the infusion. The diluted infusion is administered intravenously by a peripheral or central route. No other treatments are administered via the same line, and no bolus of study drug is administered. Study drug is infused as a continuous infusion of 0.2 μg/kg/min over the first 60 minutes. After 1 hour, the flow rate is decreased to a continuous infusion of 0.1 μg/kg/min. This dose of study drug is continued for the next 23 hours. On completion of the 24-hour infusion period, the study drug infusion is switched off abruptly.
All-cause mortality data (e.g., the cause and date of death) is collected for all subjects up to Day 30 (+5). A follow-up call documents mortality between Day 30 visit and Day 90. […]

[2] = cited from earlier work; for formation of the metabolite: patients undergoing cardiac surgery
[3] = through Day 5, same 24-hour infusion regimen

| Compound | rate of all-cause death at Day 30 as compared to placebo ([1]; Day 30, same 24-hour infusion regimen) | peri- and postoperative morbidity and mortality as compared to placebo ([1]; levosimendan i.v. 0.2 μg/kg/min for first hour, then 0.1 μg/kg/min for 23 hours, started before skin incision, plus standard care) | rate of perioperative MI as compared to placebo [1, 3] | use of mechanical assist (IABP, LVAD, or ECMO) as compared to placebo [1, 3] | need for dialysis as compared to placebo ([1]; through Day 30, same 24-hour infusion regimen) | share of total dose metabolised by the minor pathway (reduction in the intestine to OR-1855) ([2]; of the total levosimendan dose) | formation of the metabolite [2] | time at which maximum concentrations are seen ([2]; after starting a 24-hour infusion, heart failure patients) | elimination half-life ([2]; heart failure patients) |
| --- | --- | --- | --- | --- | --- | --- | --- | --- | --- |
| CC1CC(=O)NN=C1c1ccc(NN=C(C#N)C#N)cc1 (single isomer, unassigned; (-)) [levosimendan, (−)-enantiomer of [[4-(1,4,5,6-tetrahydro-4-methyl-6-oxo-3-pyridazinyl)phenyl]hydrazono]prop anedinitrile] | smaller | reduces | smaller | reduced | lesser | approximately 6% |  |  |  |
| C[C@@H]1CC(=O)NN=C1c1ccc(N)cc1 [OR-1855] |  |  |  |  |  |  | delayed |  |  |
| CC(=O)Nc1ccc(C2=NNC(=O)C[C@H]2C)cc1 [OR-1896] |  |  |  |  |  |  | delayed | 2 to 4 days | 70 to 80 h |
